# Experiments:
# [1] = Determination of metabolic stability with human liver microsomes; details: human, pooled human liver microsomes, pH 7.6
# [2] = biological target: recombinant human Cathepsin K (Homo sapiens (Human), UniProt P43235); assay: Inhibition of human Cathepsin K; type: biochemical; details: substrate Z-Gly-Pro-Arg-AMC
# Procedure, shortened: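 Fluorogenic Z-Gly-Pro-Arg-AMC cleavage, 60 min at room temperature, after a 10 min enzyme–compound preincubation (enzyme 2 ng/μL; compound 0.1 nM–100 μM; 1% DMSO). Buffer pH 5.5 with sodium acetate, EDTA and L-cysteine; procathepsin first activated 30 min at pH 3.5. E64 (1 μM) stop; IC50 derived from percent of vehicle signal minus background (Ex 360/Em 460 nm).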
# [3] = biological target: recombinant human DPPI (Cathepsin C) (Homo sapiens (Human), UniProt P53634); assay: Inhibition of human DPPI (Cathepsin C); type: biochemical; details: substrate Gly-Arg-AMC
# Procedure, shortened: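 Fluorescence read after 30 min room-temperature turnover of 50 μM (final) substrate by recombinant human cathepsin C, pH 6.0 MES/NaCl/DTT/BSA buffer, quenched by Gly-Phe-DMK (1 μM final). Activity as percent of vehicle after background subtraction, used for IC50.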
# recombinant human Cathepsin K, sequence (P43235 115-329): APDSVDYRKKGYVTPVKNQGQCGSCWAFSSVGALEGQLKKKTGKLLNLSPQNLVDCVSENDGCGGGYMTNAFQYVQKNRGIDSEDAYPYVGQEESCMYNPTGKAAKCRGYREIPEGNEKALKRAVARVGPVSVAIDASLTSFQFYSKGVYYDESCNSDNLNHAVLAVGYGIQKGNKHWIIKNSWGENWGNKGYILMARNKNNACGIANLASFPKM
# recombinant human DPPI (Cathepsin C), sequence (P53634 231-394): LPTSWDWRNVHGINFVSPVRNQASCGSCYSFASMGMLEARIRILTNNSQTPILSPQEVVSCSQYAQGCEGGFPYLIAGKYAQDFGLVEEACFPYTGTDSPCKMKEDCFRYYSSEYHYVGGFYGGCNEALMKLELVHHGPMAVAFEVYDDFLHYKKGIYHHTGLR
# recombinant human DPPI (Cathepsin C), sequence (P53634 395-463): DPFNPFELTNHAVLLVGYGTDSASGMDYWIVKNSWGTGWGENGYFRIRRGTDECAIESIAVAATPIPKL
# recombinant human DPPI (Cathepsin C), sequence (P53634 25-134): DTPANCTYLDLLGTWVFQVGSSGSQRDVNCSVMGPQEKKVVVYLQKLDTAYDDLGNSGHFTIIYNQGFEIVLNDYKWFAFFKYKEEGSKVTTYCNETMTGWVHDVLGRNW
SMILES,half-life at 1 μM [1] [h],IC50 [2] [µM],IC50 [3] [µM]
CS(=O)(=O)c1ccc(-c2ccc(C[C@@H](C#N)NC(=O)[C@H]3N[C@@H]4CC[C@H]3C4)c(F)c2)c(F)c1 [Example 86],> 2.17,6.8,0.0141
N#C[C@H](Cc1ccc(-c2csc(C(=O)NC3CCOCC3)c2)cc1F)NC(=O)[C@H]1N[C@@H]2CC[C@H]1C2 [Example 235],> 2.17,3,0.0047
COCCN1CCN(c2ccc(C[C@@H](C#N)NC(=O)[C@H]3N[C@@H]4CC[C@H]3C4)c(F)c2)CC1 [Example 182],> 2.17,3.5,0.0088
N#CC(Cc1ccc(-c2ccc(Cl)nn2)cc1F)NC(=O)[C@H]1N[C@@H]2CC[C@H]1C2 (stereo partly drawn) [Example 108],> 2.17,9.4,0.0264
CN1CCc2cc(-c3ccc(C[C@@H](C#N)NC(=O)[C@H]4N[C@@H]5CC[C@H]4C5)c(F)c3)ccc2C1=O [Example 42],> 2.17,2.9,0.0053
N#CC(Cc1ccc(-c2ccc(C(N)=O)cc2)cc1F)NC(=O)[C@H]1N[C@@H]2CC[C@H]1C2 (stereo partly drawn) [Example 83],> 2.17,5.1,0.0133
N#C[C@H](Cc1ccc(-c2ccc(=O)n(CC(F)F)c2)cc1F)NC(=O)[C@H]1N[C@@H]2CC[C@H]1C2 [Example 343],> 2.17,5.3,0.0045
N#C[C@H](Cc1ccc(N2CCN(CC3CCCO3)CC2)cc1F)NC(=O)[C@H]1N[C@@H]2CC[C@H]1C2 (stereo partly drawn) [Example 154],> 2.17,4.6,0.0135
CS(=O)(=O)c1cc(-c2ccc(CC(C#N)NC(=O)[C@H]3N[C@@H]4CC[C@H]3C4)c(F)c2)ccc1C#N (stereo partly drawn) [Example 19],> 2.17,5.4,0.0028
CN1CCC2(CC1)CC(c1ccc(C[C@@H](C#N)NC(=O)[C@H]3N[C@@H]4CC[C@H]3C4)c(F)c1)C2 [Example 358],> 2.17,9.6,0.022
CN1CCN(C(=O)c2coc(-c3ccc(C[C@@H](C#N)NC(=O)[C@H]4N[C@@H]5CC[C@H]4C5)c(F)c3)c2)CC1 [Example 241],1.4,2.5,0.0068
CN1Cc2cc(-c3ccc(CC(C#N)NC(=O)[C@H]4N[C@@H]5CC[C@H]4C5)c(F)c3)ccc2C1=O (stereo partly drawn) [Example 76],1.4,5.3,0.0117
CN1C(=O)C(C)(C)c2ccc(-c3ccc(C[C@@H](C#N)NC(=O)[C@H]4N[C@@H]5CC[C@H]4C5)c(F)c3)cc21 [Example 199],1.47,11.7,0.016
N#C[C@H](Cc1ccc(-c2cnn(CC3CCOCC3)c2)c(F)c1F)NC(=O)[C@H]1N[C@@H]2CC[C@H]1C2 [Example 218],> 2.17,26,0.0189
N#CC(Cc1cc2c(=O)[nH]c3cc(F)ccc3c2cc1F)NC(=O)[C@H]1N[C@@H]2CC[C@H]1C2 (stereo partly drawn) [Example 293],> 2.17,2.7,0.0013
N#C[C@H](Cc1ccc(N2CCN3CCC[C@H]3C2)cc1F)NC(=O)[C@H]1N[C@@H]2CC[C@H]1C2 [Example 270],> 2.17,6.1,0.0063
N#CC(Cc1ccc(-c2ncc(Cl)cn2)cc1F)NC(=O)[C@H]1N[C@@H]2CC[C@H]1C2 (stereo partly drawn) [Example 98],> 2.17,8.4,0.0203
N#C[C@H](Cc1cc2c(=O)[nH]c3cc(F)ccc3c2cc1F)NC(=O)[C@H]1N[C@@H]2CC[C@H]1C2 [Example 323],> 2.17,0.9,0.0008
N#C[C@H](Cc1ccc(-c2cccc(S(=O)(=O)C3CC3)c2)cc1F)NC(=O)[C@H]1N[C@@H]2CC[C@H]1C2 [Example 153],1.83,4.4,0.0038

SMILES,half-life at 1 μM [1] [h],IC50 [2] [µM],IC50 [3] [µM]
CN1CCC(N2C(=O)Cc3ccc(-c4ccc(C[C@@H](C#N)NC(=O)[C@H]5N[C@@H]6CC[C@H]5C6)c(F)c4)cc32)CC1 [Example 346],> 2.17,4,0.001
CN1CCN(S(=O)(=O)c2ccc(-c3ccc(C[C@@H](C#N)NC(=O)[C@H]4N[C@@H]5CC[C@H]4C5)c(F)c3)cc2)CC1 [Example 155],1.03,1,0.0008
CS(=O)(=O)c1cccc(-c2ccc(CC(C#N)NC(=O)[C@H]3N[C@@H]4CC[C@H]3C4)c(F)c2)c1 (stereo partly drawn) [Example 88],> 2.17,8.8,0.0152
N#C[C@H](Cc1ccc(-c2ccc3c(c2)C(=O)NC3)cc1F)NC(=O)[C@H]1N[C@@H]2CC[C@H]1C2 [Example 95],> 2.17,3.6,0.0192
N#C[C@H](Cc1ccc(-c2ccc(C(=O)NC3CCOCC3)cc2)cc1F)NC(=O)[C@H]1N[C@@H]2CC[C@H]1C2 [Example 200],> 2.17,3.3,0.0165
CS(=O)(=O)c1ccc(-c2ccc(CC(C#N)NC(=O)[C@H]3N[C@@H]4CC[C@H]3C4)c(F)c2)cc1 (stereo partly drawn) [Example 54],> 2.17,4.5,0.0082
N#CC(Cc1ccc(-c2cnn(C3CCOCC3)c2)cc1F)NC(=O)[C@H]1N[C@@H]2CC[C@H]1C2 (stereo partly drawn) [Example 116],> 2.17,7.7,0.0391
N#C[C@H](Cc1ccc(N2CCN(CCO)CC2)cc1F)NC(=O)[C@H]1N[C@@H]2CC[C@H]1C2 [Example 190],> 2.17,3.7,0.0109
N#C[C@H](Cc1ccc(-c2ccc(C(N)=O)s2)cc1F)NC(=O)[C@H]1N[C@@H]2CC[C@H]1C2 [Example 236],> 2.17,1.7,0.0016
Cc1cc(-c2ccc(CC(C#N)NC(=O)[C@H]3N[C@@H]4CC[C@H]3C4)c(F)c2)n[nH]1 (stereo partly drawn) [Example 58],> 2.17,11.1,0.0084
CC(=O)c1cn(-c2ccc(C[C@@H](C#N)NC(=O)[C@H]3N[C@@H]4CC[C@H]3C4)c(F)c2)nn1 [Example 90],> 2.17,3.5,0.016
N#C[C@H](Cc1cc2c(=O)[nH]c3c(F)c(F)ccc3c2cc1F)NC(=O)[C@H]1N[C@@H]2CC[C@H]1C2 [Example 324],> 2.17,0.8,0.001
CN1CCC2(C=C(c3ccc(C[C@@H](C#N)NC(=O)[C@H]4N[C@@H]5CC[C@H]4C5)c(F)c3)C2)CC1 [Example 359],> 2.17,6.3,0.0088
Cn1c(=O)c2cc(CC(C#N)NC(=O)[C@H]3N[C@@H]4CC[C@H]3C4)ccc2c2ccc(C#N)cc21 (stereo partly drawn) [Example 303],> 2.17,22.2,0.005
N#CC(Cc1ccc(-c2ccc3c(c2)CNC3=O)cc1F)NC(=O)[C@H]1N[C@@H]2CC[C@H]1C2 (stereo partly drawn) [Example 41],> 2.17,4.7,0.0053
N#CC(Cc1ccc2c(c1)c(=O)[nH]c1c(F)c(F)ccc12)NC(=O)[C@H]1N[C@@H]2CC[C@H]1C2 (stereo partly drawn) [Example 300],> 2.17,23.1,0.0038
N#Cc1cc(F)c2[nH]c(=O)c3cc(C[C@@H](C#N)NC(=O)[C@H]4N[C@@H]5CC[C@H]4C5)c(F)cc3c2c1 [Example 325],> 2.17,2.3,0.0013
N#C[C@H](Cc1ccc(-c2cc(C(=O)N3CCn4nccc4C3)co2)cc1F)NC(=O)[C@H]1N[C@@H]2CC[C@H]1C2 [Example 240],1.83,9.4,0.0061
N#Cc1ccc(-c2ccc(C[C@@H](C#N)NC(=O)[C@H]3N[C@H]4C[C@@H]3[C@@H]3C[C@@H]34)c(F)c2)s1 [Example 40],> 2.17,7.8,0.0051

# From patent US8987249B2, “Substituted 2-Aza-bicyclo[2.2.1]heptane-3-carboxylic acid (benzyl-cyano-methyl)-amides inhibitors of Cathepsin C” (Boehringer Ingelheim International GmbH, priority 2013, dated 2015)
